Measured values: patent US6956039B2, “Nitrogenous heterocylic compounds” (Millennium Pharmaceuticals, Inc., priority 2000, dated 2005)

Experiments:
β-PDGFR [1] = molecular target: T1, β-PDGFR (Homo sapiens, UniProt P09619); experiment: MG63 phosphorylation assay (endogenous β-PDGFR phosphorylation, PDGF-BB stimulation with human plasma); format: cell-based; parameters: This assay is for measuring endogenous β-PDGFR phosphorylation in MG63 cells; endogenous in cells; host or cells: MG63 human osteosarcoma cells (ATCC); conditions: MG63 human osteosarcoma cells; PDGF-BB stimulation in presence of 45% human plasma; PDGF receptor phosphorylation; read-out: MG63 w/human plasma IC50
T1 sequence (P09619 33-1106): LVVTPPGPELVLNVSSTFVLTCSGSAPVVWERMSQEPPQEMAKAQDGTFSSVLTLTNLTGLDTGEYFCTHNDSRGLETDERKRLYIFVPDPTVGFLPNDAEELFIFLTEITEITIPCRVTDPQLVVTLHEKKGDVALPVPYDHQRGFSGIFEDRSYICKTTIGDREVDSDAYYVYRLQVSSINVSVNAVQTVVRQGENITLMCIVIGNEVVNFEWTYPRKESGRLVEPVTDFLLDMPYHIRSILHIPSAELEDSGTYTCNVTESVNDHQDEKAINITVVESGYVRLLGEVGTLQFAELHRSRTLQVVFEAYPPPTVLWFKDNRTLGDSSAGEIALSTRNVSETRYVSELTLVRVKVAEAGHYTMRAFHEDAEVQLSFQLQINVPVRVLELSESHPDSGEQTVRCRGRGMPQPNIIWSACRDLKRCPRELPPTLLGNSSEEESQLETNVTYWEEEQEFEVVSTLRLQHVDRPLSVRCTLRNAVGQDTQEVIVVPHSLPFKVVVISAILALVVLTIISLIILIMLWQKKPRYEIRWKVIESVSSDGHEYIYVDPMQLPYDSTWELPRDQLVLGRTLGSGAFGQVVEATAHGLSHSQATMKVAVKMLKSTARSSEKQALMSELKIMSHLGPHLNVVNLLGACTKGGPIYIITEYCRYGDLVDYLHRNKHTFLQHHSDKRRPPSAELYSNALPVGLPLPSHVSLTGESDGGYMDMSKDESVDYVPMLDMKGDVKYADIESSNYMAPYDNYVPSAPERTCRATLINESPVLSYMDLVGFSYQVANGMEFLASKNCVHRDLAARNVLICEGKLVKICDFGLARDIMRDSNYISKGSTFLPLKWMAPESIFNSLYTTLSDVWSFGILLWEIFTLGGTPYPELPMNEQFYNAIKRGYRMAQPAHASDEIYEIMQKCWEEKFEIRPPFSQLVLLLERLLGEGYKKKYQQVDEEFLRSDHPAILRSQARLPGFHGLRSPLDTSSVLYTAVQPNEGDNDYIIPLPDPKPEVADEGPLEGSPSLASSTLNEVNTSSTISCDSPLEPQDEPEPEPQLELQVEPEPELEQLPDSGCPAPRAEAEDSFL
Method: For the phosphorylation assay according to the invention, HR5 cells were grown to confluency in 96-well microtiter plates under standard tissue culture conditions, followed by serum-starvation for 16 hours. Quiescent cells were incubated at 37° C. without or with increasing concentrations of the test compound (0.01-30 uM) for 30 minutes followed by the addition of 8 nM PDGF BB for 10 minutes. Cells were lysed in 100 mM Tris, pH7.5, 750 mM NaCl, 0.5% Triton X-100, 10 mM sodium pyrophosphate, 50 mM NaF, 10 ug/ml aprotinin, 10 ug/ml leupeptin, 1 mM phenylmethylsulfonyl fluoride, 1 mM sodium vanadate, and the lysate was cleared by centrifugation at 15,000×g for 5 minutes. Clarified lysates were transferred into a second microtiter plate in which the wells were previously coated with 500 ng/well of 1B5B11 anti-β-PDGFR mAb, and then incubated for two hours at room temperature. After washing three times with binding buffer (0.3% gelatin, 25 mM Hepes pH 7.5, 100 mM NaCl, 0.01% Tween-20), 250 ng/ml of rabbit polyclonal anti-phosphotyrosine antibody (Transduction Laboratory) was added and plates were incubated at 37° C. for 60 minutes. […] Wells were washed prior to adding ABTS (Sigma), and the rate of substrate formation was monitored at 650 nm. […]

β-PDGFR [2] = molecular target: T1, β-PDGFR; experiment: HR5 phosphorylation assay (CHO cells overexpressing human β-PDGFR); format: cell-based; parameters: host or cells: CHO cells (HR5 line); conditions: 8 nM PDGF BB for 10 minutes, PDGF receptor phosphorylation
Method: The HR5 cell line is a cell line of CHO cells engineered to overexpress human β-PDGFR, which cell line is available from the ATCC. The expression level of β-PDGFR in HR5 cells is around 5×10^4 receptor per cell. For the phosphorylation assay according to the invention, HR5 cells were grown to confluency in 96-well microtiter plates under standard tissue culture conditions, followed by serum-starvation for 16 hours. Quiescent cells were incubated at 37° C. without or with increasing concentrations of the test compound (0.01-30 uM) for 30 minutes followed by the addition of 8 nM PDGF BB for 10 minutes. Cells were lysed in 100 mM Tris, pH7.5, 750 mM NaCl, 0.5% Triton X-100, 10 mM sodium pyrophosphate, 50 mM NaF, 10 ug/ml aprotinin, 10 ug/ml leupeptin, 1 mM phenylmethylsulfonyl fluoride, 1 mM sodium vanadate, and the lysate was cleared by centrifugation at 15,000×g for 5 minutes. Clarified lysates were transferred into a second microtiter plate in which the wells were previously coated with 500 ng/well of 1B5B11 anti-β-PDGFR mAb, and then incubated for two hours at room temperature. […] Wells were washed prior to adding ABTS (Sigma), and the rate of substrate formation was monitored at 650 nm.

IC50 (β-PDGFR [1]): 103 nM | IC50 (β-PDGFR [2]): 150 nM
SMILES: c1nc(N2CCNCC2)c2ccc(OCCN3CCCCC3)cc2n1 [Example 1, 4-piperazinyl-7-(2-piperidylethoxy)quinazoline]
